# From paper PMC10020447, “Potent acyl-CoA synthetase 10 inhibitors kill Plasmodium falciparum by disrupting triglyceride formation” (Nature Communications, 2023)
# Where two headings read alike, the source gives them in different places.
# How the values were obtained:
# [1] = test system: T1, Plasmodium falciparum 3D7; assay: microbe, parasite or virus in culture; parameters: species or system P. falciparum 3D7 in human erythrocytes; Asexual blood stage growth inhibition dose response of parental 3D7 parasites, EC50; settings: 3D7, Erythrocyte
# T1 construct: 3D7 parental line, asexual blood stage
# Excerpt: Fig. 1 Gene-edited PfACS10 and PfACS11 lines phenocopy parasite lines selected to become resistant to a range of antiplasmodial chemotypes. a Chemical structures of the compounds used in drug selections. b–d Dose response curves for a representative example of the parental 3D7 line (black), the selected lines (ACS11E668K_S, ACS11F387V_S, and ACS10M300I_S) and the genetically edited lines (ACS11E668K_C, ACS11F387V_C, and ACS10M300I_C) against the compound used to select for the resistant lines. At least three biological replicates were run for each strain in technical triplicates. Shown are the average ±SD and the non-linear regression curve fit for one biological assay run in triplicate. Statistical significances for EC50 are reported in Supplementary Data 1 and source data are provided as a Source Data file. Previous work by the MalDA consortium identified MMV019719 and MMV665924 as two new phenotypic hits from the chemically diverse Medicines for Malaria Venture (MMV) Malaria Box[8],[12]. […] To verify the role of these mutations in conferring resistance to these two compounds (resistance is defined here as a more than 2-fold shift in EC50 values in in vitro culture compared to the parental line), we used CRISPR/Cas9 technology to perform allelic replacements of a subset of the mutations observed (Supplementary Fig. 1 and Supplementary Table 1). Using the 3D7 parental line, we introduced the individual point mutations F387V or E668K into PfACS11 and M300I into PfACS10, yielding the gene-edited lines ACS11F387V_C, ACS11E668K_C, and ACS10M300I_C. These parasites phenocopied the increase in EC50 values seen in drug-selected compared to wildtype parasites (Fig. 1a–c and Supplementary Data 1). These findings confirm that the mutations in PfACS10 and PfACS11 identified by resistance selections with MMV019719 and MMV665924 are sufficient to reduce susceptibility to these compounds. […] MMV019719, MMV665924, and MMV897615 were freely available as part of the Medicines for Malaria Venture’s (MMV) Malaria Box. Triacsin C was purchased from Sigma-Aldrich (St. Louis, MO, ref. T4540). The 3D7 P. falciparum strain was originally obtained through MR4 as part of the BEI Resources Repository, NIAID, NIH: 3D7, MRA-102, deposited by D. J. Carucci. We also used 3D7- IG06 (a fast-growing 3D7 clone)[64] donated by Daniel Goldberg and Dd2-Polδ[23] donated by Marcus Lee. The Malawi parasites (CF04.008 10B and CF04.009 6D and 1 G, two different patient isolates that were subcloned after culture adaption) were kindly donated by Danny Milner[26]. Parasites were cultured by standard methods[65] in RPMI 1640 medium supplemented with 28 mM NaHCO3, 25 mM HEPES, 400 μM hypoxanthine, 25 μg/mL gentamicin, and 0.5% AlbuMAX II (Life Technologies, Carlsbad, CA 11021-045). The human erythrocytes were sourced ethically, and their research use was in accord with the terms of approved protocol.
# [2] = test system: T2, Plasmodium falciparum PolD (Dd2-Polδ); assay: microbe, parasite or virus in culture; parameters: species or system P. falciparum Dd2-Polδ in human erythrocytes; Parasite survival dose response by flow cytometry with SYBR Green and MitoTracker Deep Red, EC50; settings: DD2, Erythrocyte, 72 h
# T2 construct: Dd2-Polδ parental hypermutator line, wild-type PfACS10, asexual blood stage
# Procedure: To define the EC50 of parasites, ring-stage cultures at 0.2% parasitemia and 1% hematocrit were exposed for 72 h to a range of ten drug concentrations that were 2-fold serially diluted in duplicates along with DMSO controls. Parasite survival was assessed by flow cytometry on an iQue flow cytometer (Sartorius) using SYBR Green and MitoTracker Deep Red FM (Life Technologies) as nuclear stain and vital dyes respectively. Fig. 2 Mutations in PfACS10 can cause collateral sensitivity to distinct chemotypes. Mean EC50 ± SD values for strains containing mutations in PfACS10 selected in the Dd2-Polδ line (A268D, A268V, and F427L) and in 3D7 (M300I), are shown for MMV897615, MMV665924, and MMV019719. Assays were run in triplicate and at least repeated twice. ANOVA with Dunnett post-tests compared mutations in the Dd2-Polδ line, a p < 0.001, b p = 0.005. Two-sided unpaired Student’s t test compared 3D7 and ACS10M300I_C. c p = 0.0003, d p = 0.0000008, e p = 0.0016. Source data are provided as a Source Data file and in Supplementary Data 1. More recently, we performed selections in a hypermutator P. falciparum line (Dd2-Polδ[23]) with MMV897615, which yielded three novel mutations in PfACS10 that confer at least a seven-fold increase in resistance (ACS10A268D, ACS10A268V, and ACS10F427L, Fig. 2 and Supplementary Data 1 and 3). […]
compound,measurement,setting,value
O[C@@H](c1cc(C(F)(F)F)nc2c(C(F)(F)F)cccc12)[C@H]1CCCCN1 (racemic) [mefloquine],EC50,[1]; read-out: Mefloquine (MQ) / EC50 [nM],15.3 nM
"CCc1cccc(CNC(=O)c2nc3cccc(COCc4ccc(C(=O)O)cc4)c3c(=O)[nH]2)c1 [19f, MMV897615]",EC50,[1]; read-out: MMV897615 / EC50 [nM] (b),52.9 nM
same,EC50,[2]; read-out: MMV897615 / EC50 [nM] (b) / EC50 [nM] (c),39.6 nM
COc1ccc(C(=O)C2CC2c2ccc(Cl)cc2)cc1 (stereo not drawn) [MMV665924],EC50,[1]; read-out: MMV665924 / EC50 [nM] (a),340 nM
same,EC50,[2]; read-out: MMV665924 / EC50 [nM] (a) / EC50 [nM] (c),1360 nM
CCC/C=C/C/C=C/C=C/C=N/NN=O [Triacsin C],EC50,[1]; read-out: Triacsin / EC50 [nM],549 nM
CCN(CC)Cc1cc(Nc2ccnc3cc(Cl)ccc23)ccc1O [amodiaquine],EC50,[1]; read-out: Amodiaquin (ADQ) / EC50 [nM],4.34 nM
O=C1C(O)=C([C@H]2CC[C@H](c3ccc(Cl)cc3)CC2)C(=O)c2ccccc21 [atovaquone],EC50,[1]; read-out: Atovaquone (ATQ) / EC50 [nM],0.287 nM
C=C[C@H]1CN2CC[C@H]1C[C@H]2[C@H](O)c1ccnc2ccc(OC)cc12 [quinine],EC50,[1]; read-out: Quinine (QN) / EC50 [nM],37.3 nM
